Patent US9271953B2, “Methods for correction of organ dysfunction” (priority 2013, dated 2016)
Entries after “also recorded” stand apart in the source; their conditions may differ.

Columns and labels:
[1] = tested on: patients with connective tissue disorders and/or autonomic dysfunction; assay: Patient studies / case studies with the oral compound; format: in vivo, human; conditions: patients with organ malfunction secondary to poor vagus nerve function
Experimental: The composition and method of use of the present invention is also unique because it corrects for these numerous causes of dysfunction and includes ingredients in the quantities and form required to work around the genetic, vascular, and/or co-morbid components involved. IBS/gastroparesis/constipation was initially targeted. In patient studies, a response to medication (a bowel movement) occurred within 2-12 hours, without exception. Patients were identified with a mix of co-morbid conditions including chronic fatigue syndrome, fibromyalgia, joint hypermobility and autonomic dysfunction.
The present composition was provided to a number of patients having certain diagnosed diseases, as summarized in Table 1 above and suffering from a variety of medical conditions or symptoms associated with those diseases, again, as summarized above.

[2] = tested on: post-ganglionic nicotinic acetylcholine receptors; assay: Oral single agents in patients with damaged pre-ganglionic vagus nerve: organ function; format: in vivo, human
From the text: In one embodiment of the invention, transdermal (topical) application of nicotine, applied near the lower right-hand corner of the abdomen stimulates the post-ganglionic nicotinic acetylcholinergic receptor controlling the ileocecal valve, for example, allowing the valve to open. Oral nicotine, however, is ineffective at stimulating the post-ganglionic nicotinic acetylcholinergic nerves in the abdomen, yet it exposes the patient to the direct (and negative) effect on the cerebellum.^38 In numerous patients tested, oral physostigmine or Huperzine A (both inhibitors of acetylcholinesterase, and thus indirect stimulators of both nicotinic and muscarinic acetylcholine receptors) were not effective in stimulating organ function when the pre-ganglionic portion of the vagus nerve was damaged. It is clear that in addition to inhibitors of acetylcholinesterase, other ingredients are necessary to stimulate organ function in this patient population. […] It was only through extensive testing that the inventor was able to discover the proper range of oral ingredients which were effective in stimulating these post-ganglionic nerves.

[3] = in vivo; cited from earlier work
[4] = tested on: post-ganglionic nicotinic acetylcholine receptors
From the text: Nicotine is a powerful nicotinic agonist found in the leaves of the tobacco plant (Nicotiana tabacum).

[5] = tested on: IGF-1; assay: IGF-1 levels in Patient 1; format: in vivo, human; conditions: 2 units/day growth hormone, before compound
From the text: Not intending to be bound by theory, and in no way a limitation of the present invention, the invention (excluding nicotine) can be used to stimulate production of human growth hormone, often found to be low in chronic pain syndromes, including disorders of connective tissue, “POTS”, “Hyperadrenergic POTS” and fibromyalgia. Rather than treating the patients with exogenous growth hormone, the present invention instead treats the source of the low growth hormone levels (as measured via IGF-1). Growth hormone levels can then return to normal and dysregulation of the hypothalamic-pituitary-adrenal axis is normalized. […]
Patient 1: Diagnoses: joint hypermobility (judged by the Beighton Scale), autonomic dysfunction (patient failed the Tilt Table Test of autonomic function) and visual and auditory hallucinations, hypothermia. […] Their liver enzymes and kidney function began to show abnormal readings, and pain at the site of the ileocecal valve began to occur. […]

Compound: CC(=O)O[C@H](CC(=O)[O-])C[N+](C)(C)C [Acetyl-L-Carnitine]
- organ function when Acetyl-L-Carnitine was added to the compound [1]: invariably achieved better organ function

Compound: C/C=C1\[C@H]2C=C(C)C[C@]1(N)c1ccc(=O)[nH]c1C2 [Huperzine A]
- response to medication ([2]; Patient 2, prescribed for mental fatigue): no response
- stimulating organ function when the pre-ganglionic portion of the vagus nerve was damaged ([2]; oral, numerous patients tested): not effective

Compound: CN1CCCC1c1cccnc1 (centres unmarked) [nicotine, Nicotine]
- opening the ileocecal valve, arresting gastroparesis/chronic constipation ([2]; oral doses of nicotine): ineffective
- stimulating the post-ganglionic nicotinic acetylcholinergic nerves/receptors (organ function) ([2]; oral nicotine): ineffective; also recorded: not effective
- lethal dosage [3]: 60 mg
- skin side effects ([4]; Patient 1, 7 g transdermal nicotine): intractable itching, redness, and skin welting
- ileocecal valve opening ([4]; Patient 1, 7 g transdermal nicotine near the ileocecal valve): opened the valve overnight
- reversal of chronic constipation, gastroparesis, dysmotility, ileocecal valve and Sphincter of Oddi dysfunction: time ([4]; transdermal 3-21 mg, lower right-hand quadrant of abdomen): usually within hours
- opening of the ileocecal valve ([4]; transdermal 3-21 mg, patients with poor vagus nerve function, valve not physically damaged): never failed to open the ileocecal valve

Compound: growth hormone: exogenous growth hormone, 2 units/day
- IGF-1 levels raised to the upper normal range [5]: which it did
